In ChEMBL document CHEMBL4673373, “Discovery and optimization of substituted oxalamides as novel heme-displacing IDO1 inhibitors” (Bioorg Med Chem Lett, 2021):

How the values were obtained:
[1] = biological target: T1, Indoleamine 2,3-dioxygenase 1 (Homo sapiens, UniProt P14902); assay: Inhibition of IDO1 in human SKOV3 cells; format: cell-based, SK-OV-3
Target sequence in this assay (P14902 whole entry): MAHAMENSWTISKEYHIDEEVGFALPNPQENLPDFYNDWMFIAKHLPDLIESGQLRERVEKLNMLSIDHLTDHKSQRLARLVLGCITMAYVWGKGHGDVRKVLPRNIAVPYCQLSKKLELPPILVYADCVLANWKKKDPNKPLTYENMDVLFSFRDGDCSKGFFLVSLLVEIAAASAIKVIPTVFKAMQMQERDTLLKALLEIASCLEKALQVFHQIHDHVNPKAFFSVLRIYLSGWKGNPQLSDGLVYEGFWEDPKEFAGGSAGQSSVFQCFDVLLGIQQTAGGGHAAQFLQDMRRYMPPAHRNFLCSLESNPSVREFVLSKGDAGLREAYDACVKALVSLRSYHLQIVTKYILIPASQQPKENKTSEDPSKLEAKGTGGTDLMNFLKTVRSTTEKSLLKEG

[2] = biological target: Tryptophan 2,3-dioxygenase (Homo sapiens, UniProt P48775); assay: Inhibition of TDO in HEK cells; format: cell-based
[3] = Metabolic stability in mouse liver microsomes assessed as intrinsic clearance; format: ADME, Microsome; settings: read-out: CLH
[4] = Metabolic stability in human liver microsomes assessed as intrinsic clearance; format: ADME, Microsome; settings: read-out: CLH
hERG (KCNH2) [5] = biological target: T2, hERG (KCNH2) (Homo sapiens, UniProt Q12809); assay: Inhibition of human ERG at 10 uM relative to control
T2 sequence (Q12809 whole entry): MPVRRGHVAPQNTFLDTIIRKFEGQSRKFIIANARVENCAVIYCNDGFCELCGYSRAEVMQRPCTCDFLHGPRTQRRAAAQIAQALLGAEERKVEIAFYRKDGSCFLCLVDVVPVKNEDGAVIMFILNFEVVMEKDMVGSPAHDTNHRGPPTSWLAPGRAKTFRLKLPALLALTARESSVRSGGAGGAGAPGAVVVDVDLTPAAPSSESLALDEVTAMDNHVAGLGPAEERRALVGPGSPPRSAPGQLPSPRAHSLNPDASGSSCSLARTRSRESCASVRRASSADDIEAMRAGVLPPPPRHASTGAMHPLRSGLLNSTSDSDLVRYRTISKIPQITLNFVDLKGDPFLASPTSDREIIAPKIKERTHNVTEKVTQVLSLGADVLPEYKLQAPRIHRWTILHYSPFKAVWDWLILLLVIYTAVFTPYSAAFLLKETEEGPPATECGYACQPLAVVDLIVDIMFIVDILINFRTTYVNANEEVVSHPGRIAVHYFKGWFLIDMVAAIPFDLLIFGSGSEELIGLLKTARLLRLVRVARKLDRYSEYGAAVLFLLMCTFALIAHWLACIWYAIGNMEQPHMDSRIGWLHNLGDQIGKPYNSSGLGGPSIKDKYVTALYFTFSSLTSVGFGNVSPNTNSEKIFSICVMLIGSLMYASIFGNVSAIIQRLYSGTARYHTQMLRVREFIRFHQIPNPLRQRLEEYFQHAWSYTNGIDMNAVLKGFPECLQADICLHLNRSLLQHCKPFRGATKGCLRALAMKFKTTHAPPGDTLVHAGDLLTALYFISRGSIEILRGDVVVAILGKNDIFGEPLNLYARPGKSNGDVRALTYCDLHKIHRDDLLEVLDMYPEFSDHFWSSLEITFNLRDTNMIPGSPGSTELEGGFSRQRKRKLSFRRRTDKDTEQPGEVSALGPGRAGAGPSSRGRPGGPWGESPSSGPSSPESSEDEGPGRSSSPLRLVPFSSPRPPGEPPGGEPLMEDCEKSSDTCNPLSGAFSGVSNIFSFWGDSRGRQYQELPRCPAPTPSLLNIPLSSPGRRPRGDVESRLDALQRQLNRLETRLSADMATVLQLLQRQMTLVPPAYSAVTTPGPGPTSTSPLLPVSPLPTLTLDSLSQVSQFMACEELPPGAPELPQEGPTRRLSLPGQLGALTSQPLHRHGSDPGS

[6] = biological target: T1, Indoleamine 2,3-dioxygenase 1; assay: Inhibition of IDO1 (unknown origin) by enzymatic assay
Target sequence in this assay (P14902 whole entry): as the sequence (P14902 whole entry) above

[7] = Half life in mouse at 10 mg/kg, po; format: ADME, organism-based; settings: in vivo
[8] = AUC(0 to 8 hrs) in mouse at 10 mg/kg, po; format: ADME, organism-based; parameters: route oral, time 8 hrs, dose 10 mg/kg; settings: in vivo
[9] = biological target: T1, Indoleamine 2,3-dioxygenase 1; assay: Inhibition of IDO1 in human whole blood; format: tissue-based
Target sequence in this assay (P14902 whole entry): as above

[10] = biological target: T1, Indoleamine 2,3-dioxygenase 1; assay: Binding affinity to IDO1 (unknown origin) assessed as change in melting temperature at 5 uM by thermal shift assay
Target sequence in this assay (P14902 whole entry, looked up): as the sequence (P14902 whole entry) above

hERG (KCNH2) [11] = biological target: T2, hERG (KCNH2); assay: Inhibition of human ERG assessed as reduction in channel tail current at 10 uM by patch clamp assay relative to control
Cytochrome P450 2C8 = biological target: T3, Cytochrome P450 2C8 (Homo sapiens, UniProt P10632); assay: Inhibition of CYP2C8 (unknown origin); format: ADME
T3 sequence (P10632 whole entry): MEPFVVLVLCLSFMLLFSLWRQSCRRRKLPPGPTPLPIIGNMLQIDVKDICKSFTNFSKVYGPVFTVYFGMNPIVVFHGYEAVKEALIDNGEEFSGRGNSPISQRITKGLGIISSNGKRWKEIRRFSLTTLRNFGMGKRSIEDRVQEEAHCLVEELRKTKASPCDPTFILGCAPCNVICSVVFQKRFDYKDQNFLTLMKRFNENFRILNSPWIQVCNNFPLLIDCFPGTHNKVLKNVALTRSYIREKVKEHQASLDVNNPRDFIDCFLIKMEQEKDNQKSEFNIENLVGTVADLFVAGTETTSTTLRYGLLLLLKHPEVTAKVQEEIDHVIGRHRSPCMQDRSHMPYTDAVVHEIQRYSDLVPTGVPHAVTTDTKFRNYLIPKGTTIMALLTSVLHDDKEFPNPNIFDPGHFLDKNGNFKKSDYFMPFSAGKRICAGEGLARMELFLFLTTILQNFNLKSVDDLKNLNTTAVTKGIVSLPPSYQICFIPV

[12] = Plasma protein binding in mouse; format: ADME, cell-free; settings: read-out: PPB (converted)
[13] = Cmax in mouse at 10 mg/kg, po; format: ADME, organism-based; parameters: route oral, dose 10 mg/kg; settings: in vivo
[14] = Plasma protein binding in human; format: ADME, cell-free; settings: read-out: PPB (converted)
Cytochrome P450 2C9 = Cytochrome P450 2C9 (Homo sapiens, UniProt P11712); assay: Inhibition of CYP2C9 (unknown origin); format: ADME
Chain of Cytochrome P450 2C9 (P11712 whole entry): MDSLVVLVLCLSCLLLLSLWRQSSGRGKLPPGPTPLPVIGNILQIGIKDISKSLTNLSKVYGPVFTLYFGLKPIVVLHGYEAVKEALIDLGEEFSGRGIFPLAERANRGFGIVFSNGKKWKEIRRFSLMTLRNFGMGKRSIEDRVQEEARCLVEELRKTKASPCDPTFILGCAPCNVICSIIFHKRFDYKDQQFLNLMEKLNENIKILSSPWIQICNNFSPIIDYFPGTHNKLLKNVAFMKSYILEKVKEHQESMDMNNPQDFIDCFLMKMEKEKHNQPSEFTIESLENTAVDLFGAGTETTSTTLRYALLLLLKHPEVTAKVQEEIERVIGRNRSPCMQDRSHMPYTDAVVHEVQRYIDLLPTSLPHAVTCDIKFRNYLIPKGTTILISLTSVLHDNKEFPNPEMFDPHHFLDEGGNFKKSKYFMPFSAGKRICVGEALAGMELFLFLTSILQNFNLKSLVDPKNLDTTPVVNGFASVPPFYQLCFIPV

Cytochrome P450 2D6 = Cytochrome P450 2D6 (Homo sapiens, UniProt P10635); assay: Inhibition of CYP2D6 (unknown origin); format: ADME
Chain of Cytochrome P450 2D6 (P10635 whole entry): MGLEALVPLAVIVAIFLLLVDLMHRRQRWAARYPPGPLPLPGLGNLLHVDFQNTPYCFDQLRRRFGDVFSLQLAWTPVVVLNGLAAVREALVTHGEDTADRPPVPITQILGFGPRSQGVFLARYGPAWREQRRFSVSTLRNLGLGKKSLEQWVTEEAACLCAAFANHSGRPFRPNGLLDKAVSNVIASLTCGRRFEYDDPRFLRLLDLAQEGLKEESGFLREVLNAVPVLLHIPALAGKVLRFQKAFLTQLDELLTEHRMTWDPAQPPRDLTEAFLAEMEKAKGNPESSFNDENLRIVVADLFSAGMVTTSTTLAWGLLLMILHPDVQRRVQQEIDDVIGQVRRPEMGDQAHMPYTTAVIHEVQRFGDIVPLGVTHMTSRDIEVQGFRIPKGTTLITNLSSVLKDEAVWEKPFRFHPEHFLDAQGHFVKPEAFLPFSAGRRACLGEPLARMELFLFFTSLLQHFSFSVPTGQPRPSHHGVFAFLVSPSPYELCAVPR

Chain of Tryptophan 2,3-dioxygenase (P48775 whole entry): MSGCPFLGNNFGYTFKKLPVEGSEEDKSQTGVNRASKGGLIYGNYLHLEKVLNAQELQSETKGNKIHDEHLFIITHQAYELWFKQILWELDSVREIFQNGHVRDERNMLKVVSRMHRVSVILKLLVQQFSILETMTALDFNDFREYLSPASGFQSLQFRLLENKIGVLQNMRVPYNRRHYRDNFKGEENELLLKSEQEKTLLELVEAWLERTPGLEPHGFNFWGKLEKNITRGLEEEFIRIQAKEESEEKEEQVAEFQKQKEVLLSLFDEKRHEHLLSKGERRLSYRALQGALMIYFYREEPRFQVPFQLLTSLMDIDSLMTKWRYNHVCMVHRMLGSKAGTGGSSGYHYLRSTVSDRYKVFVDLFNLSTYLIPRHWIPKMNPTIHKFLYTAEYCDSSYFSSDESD

| SMILES | IC50 [1] [µM] | IC50 [2] [µM] | microsomal CLint [3] [µL/min/mg] | microsomal CLint [4] [µL/min/mg] | inhibition at 10 µM (hERG (KCNH2) [5]) [%] | also measured |
| --- | --- | --- | --- | --- | --- | --- |
| O=C(Nc1ccc(C(F)F)cc1)C(=O)N1CCC(c2ccnc3ccc(F)cc23)CC1 | 0.021 | 5.8 | 76 | 17 | – | – |
| N#Cc1ccc2nccc(C3CCN(C(=O)C(=O)Nc4ccc(Cl)cc4)CC3)c2c1 | 0.118 | 6.1 | – | – | – | – |
| CC1(C)CN(C(=O)C(=O)Nc2ccc(Cl)cc2)CCC1c1ccnc2ccc(F)cc12 (racemic) | 0.023 | 4.5 | 72.9 | 28.8 | 71 | – |
| NS(=O)(=O)NCCCNC(=O)/C(=N/O)Nc1ccc(F)c(Cl)c1 | 1.2 | – | – | – | – | IC50 [6]: 10.3 µM |
| O=C(Nc1ccc(Cl)cc1)C(=O)N1CCC(c2ccnc3ccc(F)cc23)C(F)(F)C1 (racemic) | 0.009 | 6.3 | 52 | 11.6 | 15 | – |
| O=C(Nc1ccc(Cl)cc1)C(=O)N1CC[C@H](c2ccnc3ccc(F)cc23)[C@@H](O)C1 (stereo in doubt) | 0.0061 | 14 | 17 | 4 | 18 | half-life [7]: 1.4 h; AUC(0-t) at 8 h [8]: 27.1 µM·h; IC50 [9]: 0.33 µM; ΔTm [10]: 13 °C; inhibition at 10 µM (hERG (KCNH2) [11]): 34%; IC50 (Cytochrome P450 2C8): 9.5 µM; fraction unbound [12]: 0.02; Cmax [13]: 10 µM; fraction unbound [14]: 0.011 |
| O=C(Nc1ccc(Cl)cc1F)C(=O)N1CCC=C(c2ccnc3ccc(F)cc23)CC1 | 0.005 | 16 | 254 | 98 | – | – |
| O=C(Nc1ccc(Cl)cc1F)C(=O)N1CCC(c2ccnc3ccc(F)cc23)CC1 | 0.007 | 6.7 | 108 | 10 | – | – |
| O=C(Nc1ccc(Cl)cc1)C(=O)N1CCCC2(CC1)COc1cc(C(F)(F)F)ccc12 (centres undefined) | 0.7 | 37 | – | – | – | – |
| O=C(Nc1ccc(Cl)cn1)C(=O)N1CCC2(CC1)COc1cc(C(F)(F)F)ccc12 | 0.073 | 6.4 | 63 | 6 | – | – |
| O=C(Nc1ccc(Cl)cc1)C(=O)N1CC[C@H](c2ccnc3ccc(F)cc23)[C@H](O)C1 (stereo in doubt) | 0.11 | 17.2 | – | – | – | – |
| O=C(Nc1ccc(Cl)cn1)C(=O)N1CCC(c2cccc(Cl)c2Cl)CC1 | 0.245 | – | 77 | 40 | – | – |
| O=C(Nc1ccc(Cl)cn1)C(=O)N1CCC(c2ccnc3ccnn23)CC1 | 0.433 | – | – | – | – | – |
| O=C(Nc1ccc(C(F)(F)F)cc1)C(=O)N1CCC(c2ccnc3ccc(F)cc23)CC1 | 0.09 | 9.5 | 16 | 5.5 | 77 | – |
| O=C(Nc1ccc(Cl)cc1)C(=O)N1CCC(c2ccccc2)CC1 | 0.09 | – | – | – | – | ΔTm [10]: 12 °C; IC50 [6]: > 60 µM |
| O=C(/C(=N/O)Nc1ccc(F)c(Cl)c1)N1CCC(c2ccccc2)CC1 | 14 | – | – | – | – | IC50 [6]: > 60 µM |

| SMILES | IC50 [1] [µM] | IC50 [2] [µM] | microsomal CLint [3] [µL/min/mg] | microsomal CLint [4] [µL/min/mg] | inhibition at 10 µM (hERG (KCNH2) [5]) [%] | also measured |
| --- | --- | --- | --- | --- | --- | --- |
| O=C(Nc1ccc(Cl)cn1)C(=O)N1CCC(c2ccnc(C(F)(F)F)c2Cl)CC1 | 0.301 | 22 | 36 | 3.5 | – | – |
| O=C(Nc1ccc(Cl)cn1)C(=O)N1CCC2(CC1)COc1ccccc12 | 0.49 | – | – | – | – | – |
| NC(=O)/C(=N/O)Nc1ccc(F)c(Cl)c1 | 24 | – | – | – | – | IC50 [6]: 78 µM |
| C[C@@H](C(=O)Nc1ccc(Cl)cc1)[C@H]1CC[C@@H](c2ccnc3ccc(F)cc32)CC1 | – | – | 386 | 21.3 | – | AUC(0-t) at 8 h [8]: 9.3 µM·h |
| O=C(Nc1ccc(Cl)cc1)C(=O)N1CC[C@@H](c2ccnc3ccc(F)cc23)[C@@H](O)C1 (stereo in doubt) | 3 | 37 | – | – | – | – |
| O=C(Nc1ccc(Cl)cc1)C(=O)N1CCC2(CC1)COc1cc(C(F)F)ccc12 | 0.03 | 30 | 167 | 20 | 71 | – |
| O=C(Nc1ccc(Cl)cc1)C(=O)N1CCC2(CC1)COc1cc(C(F)(F)F)ccc12 | – | 21 | 14 | < 1 | 86 | – |
| O=C(Nc1ccc(Cl)cc1)C(=O)N1CCC(c2ccnc3cc(F)ccc23)CC1 | 0.019 | – | 55 | 26 | 85 | – |
| O=C(Nc1ccc(Cl)cc1)C(=O)N1CCC(c2ccnc3ccc(F)cc23)CC1 | – | 6.9 | 97 | 9 | 64 | half-life [7]: 1.8 h; AUC(0-t) at 8 h [8]: 19.3 µM·h; ΔTm [10]: 14 °C; inhibition at 10 µM (hERG (KCNH2) [11]): 70%; IC50 (Cytochrome P450 2C9): 6.1 µM; IC50 (Cytochrome P450 2C8): 4.7 µM; IC50 (Cytochrome P450 2D6): > 10 µM; fraction unbound [12]: 0.011; Cmax [13]: 5.1 µM; fraction unbound [14]: 0.003 |
| O=C(Nc1ccc(Cl)cn1)C(=O)N1CCC(c2ccnc3ccc(F)cc23)CC1 | 0.07 | 5.9 | 112 | 23 | – | – |
| N#Cc1ccc(NC(=O)C(=O)N2CCC(c3ccnc4ccc(F)cc34)CC2)cc1 | 0.036 | 5.5 | 28 | 11 | 61 | – |
| CS(=O)(=O)NCCCNC(=O)/C(=N/O)Nc1ccc(F)c(Br)c1 | 0.34 | – | – | – | – | IC50 [6]: 5 µM |
| O=C(Nc1ccc(F)c(Cl)c1)C(=O)N1CCC(c2ccccc2)CC1 | 1.8 | – | – | – | – | ΔTm [10]: 1 °C; IC50 [6]: > 60 µM |
| O=C(Nc1ccc(Cl)cc1F)C(=O)N1CCCC(c2ccnc3ccc(F)cc23)CC1 (racemic) | 0.008 | 5.9 | 202 | 108 | 66 | – |
| O=C(Nc1ccc(Cl)cc1)C(=O)N1CCC(c2ccnc3ccc(Cl)cc23)CC1 | 0.019 | 2.5 | 72 | 11 | – | – |
| O=C(Nc1ccc(Cl)cc1)C(=O)N1CC[C@@H](c2ccnc3ccc(F)cc23)[C@H](O)C1 (stereo in doubt) | 0.05 | 15.3 | 18 | 5 | 10 | – |
